Measurements published in US9260439B2, “Dihydropyrrolopyrimidine derivatives” (PFIZER INC., priority 2014, dated 2016).

Key:
[1] = molecular target: full-length PI3Kα (full-length p110α/p85α) (Homo sapiens (Human), UniProt P42336); experiment: PI3KA_FL fluorescence polarization kinase assay (Ki); format: biochemical; settings: 41 μM ATP
Text: Enzyme Production for Biochemical Assays: 1) PI3Kα Complex (Full Length p110α and p85α)(“PI3KA_FL”)
Genes encoding for full length p110α and p85α subunits of PI3Kα complex were subcloned from existing constructs into pFASTBAC Dual vector (Life Technologies, Carlsbad, Calif.) using standard cloning procedures. Gene encoding p110α subunit was subcloned into polyhedrine promoter while gene encoding p85α subunit was subcloned into p10 promoter. Additionally, sequence encoding for histidine tag and Tobacco Etch Virus (“TEV”) cleavage site preceded p110α ORF (Open Reading Frame). Recombinant baculovirus was generated using Bac-to-Bac protocol (Life Technologies, Carlsbad, Calif.) and large scale expression was conducted in Sf21 (Life Technologies, Carlsbad, Calif.) cells at a multiplicity of infection (“MOI”)=1 for 72 hours. Cells were lyzed in 50 mM Tris pH 8.0, 250 mM NaCl, 5% glycerol, 0.25 mM TCEP, and 20 mM imidazole. The PI3Kα complex was purified from clarified supernatant using Immobilized Metalo Affinity Chromatography (“IMAC”). The protein was eluted from the column using 50 mM Tris pH 8.0, 200 mM NaCl, 5% glycerol, 0.25 mM TCEP, and 200 mM imidazole, and further desalted into 50 mM Tris pH 8.0, 20 mM NaCl, and 0.25 mM TCEP prior to loading on MonoQ sepharose (GE Healthcare, Piscataway, N.J.). PI3Kα complex was eluted from MonoQ sepharose over 20 column volumes using 0-30% gradient of buffer B (50 mM Tris pH 8.0, 1 M NaCl, and 0.25 mM TCEP). The peak fractions were pulled together and loaded on Superdex 200 26/60 SEC column equilibrated in 50 mM Tris pH 8.0, 200 mM NaCl, and 0.5 mM TCEP. […] Purity and integrity of the complex was confirmed using LCMS, analytical SEC and SDS-PAGE (sodium dodecyl sulfate polyacrylamide gel electrophoresis) analysis.
The biochemical assays of kinase activity of full-length PI3Kα (full-length p110α/p85a) or truncated PI3Kα (p110α/iSH2 p85a) were conducted using a fluorescence polarization format similar to the procedure of Yuan J., et al., (2011) “PF-04691502, a Potent and Selective Oral Inhibitor of PI3K and mTOR Kinases with Antitumor Activity”, Mol Cancer Ther. 10, 2189-2199. The enzymatic reactions were conducted in 50 μL volumes in 96-well plates. The reactions contained human recombinant PI3Kα (2 nM full-length p110α/p85α or 0.5 nM p110α/iSH2 p85) and 30 μM phosphatidylinositol 4,5-bisphosphate (“PIP2”) (Cayman Chemical Company, Ann Arbor, Mich.) and were sonicated for 1 minute prior to adding PI3Kα enzyme (PI3KA_Act or PI3KA_FL), DMSO or test compound (12-point 3-fold serial dilution, 3 μM top dose, 2° A) DMSO final concentration), 5 mM MgCl2, 50 mM HEPES pH 7.4, 150 mM NaCl, 1 mM DTT ((2S,3S)-1,4-bis(sulfanyl)butane-2,3-diol), and 0.05% 3-[(3-cholamidopropyl)dimethylammonio]-1-propanesulfonate (“CHAPS”). […] The reactions were incubated for 30 min at room temperature, stopped with EDTA pH 8 (10 mM final concentration). In a detection plate, 15 μL of detector/probe mixture, containing 480 nM GST-Grp1 PH domain protein (University of Dundee, Dundee, UK) and 12 nM carboxytetramethylrhodamine (“TAMRA”)-tagged fluorescent phosphatidylinositol (3,4,5)-triphosphate (“PIP3”) (Echelon Biosciences, Inc., Salt Lake City, Utah) in assay buffer, was mixed with 15 μL of kinase reaction mixture. The plate was shaken for 30 minutes and fluorescence polarization values were measured on an LJL Analyst HT plate reader (Molecular Devices, Sunnyvale, Calif.). […] The inhibition constants (Ki) were calculated by fitting fluorescence polarization values, corresponding to initial reaction rates, to the Morrison equation (Morrison, J. F. (1969) Kinetics of the reversible inhibition of enzyme catalysed reactions by tight-binding inhibitors. Biochim. Biophys. Acta 185, 269-286) for tight-binding competitive inhibitors using non-linear regression method (GraphPad Prism, GraphPad Software, San Diego, Calif.).

[2] = molecular target: truncated PI3Kα (p110α/iSH2 p85α) (Homo sapiens (Human), UniProt P42336); experiment: PI3KA_Act fluorescence polarization kinase assay (Ki); format: biochemical; settings: 1 mM ATP
How it was run: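 Ki values result from fitting fluorescence polarization signals to the Morrison equation for tight-binding competitive inhibitors. The detector was GST-Grp1 PH domain with TAMRA-PIP3, read after a 30 min room-temperature reaction of 0.5 nM truncated PI3Kα and 30 μM PIP2 at pH 7.4 in HEPES/NaCl/MgCl2/DTT/CHAPS buffer. Compounds were tested as 12-point 3-fold dilutions from 3 μM.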

Sequence of full-length PI3Kα (full-length p110α/p85α) (P42336 whole entry): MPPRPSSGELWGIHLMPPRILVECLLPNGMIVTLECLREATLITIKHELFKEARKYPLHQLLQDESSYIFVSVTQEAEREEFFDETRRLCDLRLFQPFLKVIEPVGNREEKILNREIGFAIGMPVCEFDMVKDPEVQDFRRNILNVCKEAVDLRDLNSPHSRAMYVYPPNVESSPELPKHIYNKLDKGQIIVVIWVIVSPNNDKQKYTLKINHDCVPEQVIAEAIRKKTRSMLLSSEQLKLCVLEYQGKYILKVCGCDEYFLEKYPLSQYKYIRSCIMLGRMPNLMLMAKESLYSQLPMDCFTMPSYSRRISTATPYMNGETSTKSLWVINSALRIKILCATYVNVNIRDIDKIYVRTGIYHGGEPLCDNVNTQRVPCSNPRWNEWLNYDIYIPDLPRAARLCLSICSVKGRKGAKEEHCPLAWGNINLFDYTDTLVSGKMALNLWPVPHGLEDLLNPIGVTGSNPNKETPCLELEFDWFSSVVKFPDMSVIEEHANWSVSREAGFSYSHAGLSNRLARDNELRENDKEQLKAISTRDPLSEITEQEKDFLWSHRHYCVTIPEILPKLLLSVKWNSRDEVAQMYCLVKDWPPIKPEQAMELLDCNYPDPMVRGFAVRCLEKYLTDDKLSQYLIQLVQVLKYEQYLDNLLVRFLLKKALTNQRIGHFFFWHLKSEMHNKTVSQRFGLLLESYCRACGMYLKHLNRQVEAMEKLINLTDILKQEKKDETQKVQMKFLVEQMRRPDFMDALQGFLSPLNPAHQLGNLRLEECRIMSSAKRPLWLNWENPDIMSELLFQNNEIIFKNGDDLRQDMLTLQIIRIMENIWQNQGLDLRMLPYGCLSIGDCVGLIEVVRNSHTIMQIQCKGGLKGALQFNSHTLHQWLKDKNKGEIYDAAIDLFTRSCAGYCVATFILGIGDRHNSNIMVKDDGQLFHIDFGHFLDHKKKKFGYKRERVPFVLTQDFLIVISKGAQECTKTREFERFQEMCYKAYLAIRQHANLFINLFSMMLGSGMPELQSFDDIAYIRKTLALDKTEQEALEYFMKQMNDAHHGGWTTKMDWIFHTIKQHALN
Sequence of full-length PI3Kα (full-length p110α/p85α) (P27986 whole entry partner): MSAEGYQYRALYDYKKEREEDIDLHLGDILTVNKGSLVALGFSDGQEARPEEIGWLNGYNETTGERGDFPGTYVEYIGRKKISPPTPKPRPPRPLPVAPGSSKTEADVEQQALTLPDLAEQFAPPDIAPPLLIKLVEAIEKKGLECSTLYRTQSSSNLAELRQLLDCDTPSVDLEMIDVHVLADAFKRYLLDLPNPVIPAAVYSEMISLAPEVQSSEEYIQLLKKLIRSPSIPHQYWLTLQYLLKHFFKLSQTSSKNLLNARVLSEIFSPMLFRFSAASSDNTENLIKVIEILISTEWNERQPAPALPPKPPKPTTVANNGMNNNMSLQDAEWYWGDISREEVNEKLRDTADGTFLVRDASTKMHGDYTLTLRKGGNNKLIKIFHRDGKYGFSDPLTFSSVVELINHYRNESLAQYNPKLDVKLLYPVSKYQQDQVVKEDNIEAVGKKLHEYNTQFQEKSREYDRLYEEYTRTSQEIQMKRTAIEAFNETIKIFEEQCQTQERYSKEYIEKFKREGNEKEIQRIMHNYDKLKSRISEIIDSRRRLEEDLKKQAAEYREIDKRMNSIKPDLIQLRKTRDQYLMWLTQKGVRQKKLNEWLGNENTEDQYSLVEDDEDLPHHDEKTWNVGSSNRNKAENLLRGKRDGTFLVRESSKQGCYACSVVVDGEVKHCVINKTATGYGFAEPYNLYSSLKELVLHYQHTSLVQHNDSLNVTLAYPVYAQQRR
Sequence of truncated PI3Kα (p110α/iSH2 p85α) (P42336 whole entry, the tested form may be a part): as the sequence (P42336 whole entry) above

SMILES | PI3KA_FL Ki [1] | PI3KA_Act Ki [2] | PI3KA_FL Ki (nM) [1]
CNS(=O)(=O)N(C)[C@H]1C[C@H](N2CCc3c(-c4cnc(N)nc4)nc(N4CCOCC4)nc32)C1 [Example 46] | 0.412 nM | 0.187 nM | 
CNS(=O)(=O)N(C)[C@H]1C[C@@H](N2CCc3c(-c4cnc(N)nc4)nc(N4CCOCC4)nc32)C1 [Example 57] | 0.318 nM | 0.465 nM | 
N#C[C@H]1C[C@H](N2CCc3c(-c4cnc(N)nc4)nc(N4CCOCC4)nc32)C1 [Example 59] |  | 0.122 nM | ≦0.229 nM
COC(=O)N1CC(N2CCc3c(-c4cnc(N)nc4)nc(N4CCOCC4)nc32)C1 [Example 61] | 0.234 nM | 0.235 nM | 
Nc1ncc(-c2nc(N3CCOCC3)nc3c2CCN3C2CN(S(N)(=O)=O)C2)cn1 [Example 72] |  | 0.129 nM | ≦0.229 nM
CS(=O)(=O)N1CC(N2CCc3c(-c4cnc(N)nc4)nc(N4CCOCC4)nc32)C1 [Example 73] | 0.350 nM | 0.303 nM | 
C[C@H]1COCCN1c1nc(-c2cnc(N)nc2)c2c(n1)N([C@H]1CCN(C(=O)OC(C)(C)C)C1)CC2 [Example 76] | 0.359 nM | 0.182 nM | 
C[C@H]1COCCN1c1nc(-c2cnc(N)nc2)c2c(n1)N([C@H]1CCN(S(C)(=O)=O)C1)CC2 [Example 79] |  | 0.257 nM | ≦0.229 nM
CN(C)S(=O)(=O)N1CC[C@H](N2CCc3c(-c4cnc(N)nc4)nc(N4CCOCC4)nc32)C1 [Example 82] | 0.240 nM | 0.100 nM | 
CNS(=O)(=O)N1CC[C@@H](N2CCc3c(-c4cnc(N)nc4)nc(N4CCOC[C@@H]4C)nc32)C1 [Example 85] | 0.283 nM | 0.239 nM | 
CNS(=O)(=O)N1CC[C@@H](N2CCc3c(-c4cnc(N)nc4)nc(N4CCOC[C@@H]4C)nc32)C1 [Example 92] | 0.475 nM | 0.376 nM | 
CS(=O)(=O)N1CCC[C@@H](N2CCc3c(-c4cnc(N)nc4)nc(N4CCOCC4)nc32)C1 [Example 93] | 0.506 nM | 0.603 nM | 
CNS(=O)(=O)O[C@H]1C[C@H](N2CCc3c(-c4cnc(N)nc4)nc(N4CCOCC4)nc32)C1 [Example 95] |  | 0.078 nM | ≦0.229 nM
C[C@H]1COCCN1c1nc(-c2cnc(N)nc2)c2c(n1)N([C@H]1CCN(S(N)(=O)=O)C1)CC2 [Example 100] |  | 0.132 nM | ≦0.229 nM
CCS(=O)(=O)N1CC[C@H](N2CCc3c(-c4cnc(N)nc4)nc(N4CCOCC4)nc32)C1 [Example 101] |  | 0.093 nM | ≦0.229 nM
Nc1ncc(-c2nc(N3CCOCC3)nc3c2CCN3[C@H]2CCN(S(=O)(=O)C3CC3)C2)cn1 [Example 102] |  | 0.067 nM | ≦0.229 nM
CNS(=O)(=O)O[C@H]1C[C@@H](N2CCc3c(-c4cnc(N)nc4)nc(N4CCOCC4)nc32)C1 [Example 104] |  | 0.079 nM | ≦0.229 nM
CS(=O)(=O)N[C@H]1C[C@H](N2CCc3c(-c4cnc(N)nc4)nc(N4CCOCC4)nc32)C1 [Example 105] | 0.285 nM | 0.157 nM | 
CC(C)S(=O)(=O)N1CC[C@H](N2CCc3c(-c4cnc(N)nc4)nc(N4CCOCC4)nc32)C1 [Example 106] |  | 0.064 nM | ≦0.229 nM

SMILES | PI3KA_FL Ki [1] | PI3KA_Act Ki [2] | PI3KA_FL Ki (nM) [1]
CCS(=O)(=O)N1CC(N2CCc3c(-c4cnc(N)nc4)nc(N4CCOCC4)nc32)C1 [Example 108] |  | 0.122 nM | ≦0.229 nM
Nc1ncc(-c2nc(N3CCOCC3)nc3c2CCN3C2CN(S(=O)(=O)C3CC3)C2)cn1 [Example 109] |  | 0.118 nM | ≦0.229 nM
CC(C)S(=O)(=O)N1CC[C@@H](N2CCc3c(-c4cnc(N)nc4)nc(N4CCOCC4)nc32)C1 [Example 111] |  | 0.151 nM | ≦0.229 nM
C[C@H]1COCCN1c1nc(-c2cnc(N)nc2)c2c(n1)N(C1CN(S(C)(=O)=O)C1)CC2 [Example 113] |  | 0.289 nM | ≦0.229 nM
CCS(=O)(=O)N1CC(N2CCc3c(-c4cnc(N)nc4)nc(N4CCOC[C@@H]4C)nc32)C1 [Example 115] |  | 0.105 nM | ≦0.229 nM
CNS(=O)(=O)N1C[C@@H](N2CCc3c(-c4cnc(N)nc4)nc(N4CCOC[C@@H]4C)nc32)[C@H](OC)C1 [Example 117] | 0.256 nM | 0.179 nM | 
C[C@H]1COCCN1c1nc(-c2cnc(N)nc2)c2c(n1)N(C1CN(S(=O)(=O)C3CC3)C1)CC2 [Example 118] |  | 0.030 nM | ≦0.229 nM
CCS(=O)(=O)N1CC[C@H](N2CCc3c(-c4cnc(N)nc4)nc(N4CCOC[C@@H]4C)nc32)C1 [Example 119] |  | 0.059 nM | ≦0.229 nM
C[C@H]1COCCN1c1nc(-c2cnc(N)nc2)c2c(n1)N(C1CN(S(=O)(=O)N(C)C)C1)CC2 [Example 120] |  | 0.030 nM | ≦0.229 nM
C[C@H]1COCCN1c1nc(-c2cnc(N)nc2)c2c(n1)N([C@H]1CCN(S(=O)(=O)C3CC3)C1)CC2 [Example 121] |  | 0.056 nM | ≦0.229 nM
CNS(=O)(=O)N1CC(N2CCc3c(-c4cnc(N)nc4)nc(N4CCOC[C@@H]4C)nc32)C1 [Example 122] |  | 0.064 nM | ≦0.229 nM
COC(=O)N1CC[C@H](N2CCc3c(-c4cnc(N)nc4)nc(N4CCOC[C@@H]4C)nc32)C1 [Example 123] |  | 0.069 nM | ≦0.229 nM
CCOC(=O)N1CC[C@H](N2CCc3c(-c4cnc(N)nc4)nc(N4CCOC[C@@H]4C)nc32)C1 [Example 125] |  | 0.087 nM | ≦0.229 nM
C[C@H]1COCCN1c1nc(-c2cnc(N)nc2)c2c(n1)N(C1CN(S(N)(=O)=O)C1)CC2 [Example 126] |  | 0.219 nM | ≦0.229 nM
CNS(=O)(=O)N1C[C@@H](O)[C@H](N2CCc3c(-c4cnc(N)nc4)nc(N4CCOC[C@@H]4C)nc32)C1 [Example 128] |  | 0.126 nM | ≦0.229 nM
CC(C)S(=O)(=O)N1CC[C@H](N2CCc3c(-c4cnc(N)nc4)nc(N4CCOC[C@@H]4C)nc32)C1 [Example 131] |  | 0.044 nM | ≦0.229 nM
CC(C)(C)N1CCc2c(-c3cnc(N)nc3)nc(N3CCOCC3)nc21 [Example 132] |  | 0.150 nM | ≦0.229 nM
CC(=O)N1CC(OC(=O)N2CC[C@@H](N3CCc4c(-c5cnc(N)nc5)nc(N5CCOC[C@@H]5C)nc43)C2)C1 [Example 136] |  | 0.099 nM | ≦0.229 nM
